The record followed here is patent publication US20040157902A1, “Integrin antagonists” (priority 2001, published 2004).

This series can be described thus: partition coefficient octanol/water at pH 7.4 (logD(7.4)). It is filed as physicochemical. An excerpt:
If an active ingredient is introduced into an octanol/water mixture, it partitions between the two phases at a given pH in accordance with its lipophilicity/hydrophilicity. The ratio of the partitioning of the active ingredient between the octanol and water phases is known as the partition coefficient. Absorption of active ingredients requires that they both dissolve in aqueous media and also pass through the corresponding membranes. For the latter, a certain lipophilicity of the active ingredient is necessary. The requisite lipophilicity arises from the lipophilicity of the respective membrane. Thus, absorption in the intestine requires a logD value of >−1.50 and passage through the blood-brain barrier requires a logD value of >0.5 (Lipinski C. A: Adv. Drug Del. Rev. 23 (1997), 3-25). A favourable logD value is an essential prerequisite for absorption of an active ingredient.
logD values given above and below are partition coefficients of the compounds in question octanol/water at a pH of 7.4 (logD(7.4)).

One may read the logD as lipophilicity at a set pH, counting ionised and neutral species. The compound `O=C(CNC(=O)NCCCNc1ccccn1)NC(Cc1nnn[nH]1)c1ccc(-c2ccccc2)cc1` (stereo not drawn) [EMD 387 890, N-[1-biphenyl-4-yl-2-(1H-tetrazol-5-yl)ethyl]-2-{3-[3-(pyridin-2-ylamino)propyl]ureido}acetamide] registered a logD of 6.19.
Then `O=C(CCCCNc1ccccn1)NCC(=O)NC(Cc1nnn[nH]1)c1ccc(-c2ccccc2)cc1` (stereo not drawn) [EMD 389 889, N-[1-biphenyl-4-yl-2-(1H-tetrazol-5-yl)ethyl]-2-[5-(pyridin-2-ylamino)pentanoylamino]-acetamide], with 6.52.
For `CS(=O)(=O)NC(=O)CC(NC(=O)CNC(=O)CCCCNc1ccccn1)c1ccc(-c2ccccc2)cc1` (stereo not drawn) [EMD 387 803], the logD is -0.38.
